Data on one substance can be found in paper PMC5430962, “Retro-inverso Urokinase Receptor Antagonists for the Treatment of Metastatic Sarcomas” (Scientific Reports, 2017).

For one series, the system named is HT1080 cells. Nature of the series: HT1080 matrigel invasion toward 10% FBS in Boyden chambers. The format is cell-based, human. The note with it: 10 nM peptide plus 10% FBS, 6 hr, means of three independent experiments in triplicate. As for the experimental part:
Cell migration in Boyden chambers was carried out for 4 hr at 37 °C in humidified air with 5% CO2, as described. Briefly, cell suspension (1 × 10^5 viable cells/mL serum free medium) was seeded in each upper chamber. Lower chambers were filled with DMEM alone, DMEM containing RI peptides, 10 nM fMLF, or 10% FBS with/without RI peptides. The two compartments were separated by 8 μm pore size polycarbonate filters (Neuroprobe) coated with 2.5 µg/mL vitronectin (Corning). For the invasion assays, 8 μm pore size filters were coated with 50 μg/filter matrigel (BD Biosciences) as previously described[40] and cells (3 × 10^4 viable cells/well) were allowed to invade matrigel for 6 hr at 37 °C, 5% CO2. In all cases, at the end of the assay, cells on the lower filter surface were fixed with ethanol, stained with haematoxylin and 10 random fields/filter were counted at 200× magnification. Each experiment was performed three times in triplicate.

For the next series, the system named is Akt(S473). Nature of the series: Phospho-kinase array, RBL-2H3/ETFR cells. The series is classed as cell-based, rat. The settings on record: 10 nM fMLF plus 10 nM peptide, 10 min. On the procedure: (§1) RBL-2H3/ETFR grown to semi-confluence, were exposed to DMEM alone, 10 nM fMLF with/without 10 nM RI-3 at 37 °C in humidified air with 5% CO2. At the indicated times, cells were lysed in RIPA buffer and cell lysate protein content was measured by a colorimetric assay. Western blot analysis of AKT phosphorylation was performed as previously described using anti-phospho-Akt (Ser473) (pAKT) Ab (Cell Signaling) and anti-Akt mAb (R&D System). The effects of fMLF with/without 10 nM RI-3 were analyzed at the level of global kinase phosphorylation, using the dot-blot Proteome Profiler^TM Array Human PhosphoKinase Array Kit (R&D Systems), according to manufacturer’s instructions. Briefly, 300 µg of protein were applied on each membrane and the signals were detected as described for Western blot. The pixel density of each spot was measured using NIH Image 1.62 software. The intensity of positive control spots was used to normalize results between the four membranes. The intensity for each spot was then averaged over the duplicate spots.

The test system of the next series is CREB(S133). Nature of the series: Phospho-kinase array, RBL-2H3/ETFR cells. The format is cell-based, rat. The settings on record: 10 nM fMLF plus 10 nM peptide, 10 min. As for the experimental part:
as §1

In series [1] the test system is ERK1/2(T202/Y204/T185/Y187). Briefly: Phospho-kinase array, RBL-2H3/ETFR cells. The format is cell-based, rat. The note with it: 10 nM fMLF plus 10 nM peptide, 10 min. On the procedure: as §1
Another series has as its system FAK(Y397). Briefly: Phospho-kinase array, RBL-2H3/ETFR cells. The series is classed as cell-based, rat. The note with it: 10 nM fMLF plus 10 nM peptide, 10 min. As for the experimental part:
as §1

The next series has as its system Fgr(Y412). Briefly: Phospho-kinase array, RBL-2H3/ETFR cells. The note with it: 10 nM fMLF plus 10 nM peptide, 10 min. The format is cell-based, rat. On the procedure: as §1
A further series relates to p38α(T180/Y182). Briefly: Phospho-kinase array, RBL-2H3/ETFR cells. The format is cell-based, rat. The settings on record: 10 nM fMLF plus 10 nM peptide, 10 min. On the procedure:
as §1

Series [2] can be described thus: Stability in bovine serum, read out as inhibition of HT1080 migration (xCELLigence). The series is classed as in vitro ADME. The note with it: pre-incubated at 10^−3 M in bovine serum 18 hr at 37 °C, tested at 10 nM on HT1080 migration 18 hr, quadruplicate. On the procedure:
A major limitation of peptides for use as therapeutics is susceptibility to degradation by serum proteases. The stability of RI-3 in bovine and human serum was investigated by comparing inhibitory activities of RI-3 and RI-3 pre-incubated at 10^−3 M with serum for 18 hr at 37 °C on cell migration and invasion. HT1080 cells were allowed to migrate for 18 hr toward DMEM (CTRL), 10% FBS (None), 10% FBS plus 10 nM RI-3 or 10% FBS with 10 nM RI-3 pre-incubated in bovine serum. […] The stability of RI-3 in human serum was investigated in cell invasion experiments performed in Boyden chambers. […]
(a) HT1080 cells were allowed to migrate in real time for 18 hr toward DMEM (CTRL), or 10% FBS in the absence (None) or the presence of 10 nM RI-3 or 10 nM RI-3 pre-incubated at 10^−3 M in bovine serum for 18 hr at 37 °C. […] The basal value assessed in the absence of FBS (CTRL) was taken as 100% and all values were reported relative to that. Data are the means ± SD three independent experiments, performed in triplicate. *Indicates statistical significance calculated against None, with *P < 0.05, **P < 0.0001. (c) Cell proliferation of HT1080 cells assessed by MTS assay. […] At the indicated times, the absorbance of adherent cells was assessed with a microplate reader. […]

In another series the test system is HUVECs. Nature of the series: Endothelial cell tube formation on matrigel. The format is cell-based, human. The note with it: 10 nM, three experiments in duplicate. On the procedure: The formation of vascular-like structures was assessed on a matrigel basement membrane matrix preparation. HUVEC (4 × 10^4 cells/well) were suspended in 300 µl pre-warmed serum-free medium. Diluents or effectors were added to the cell suspension prior to seeding cells on polymerized growth factor-reduced matrigel (100 µl/well) (Becton Dickinson). Assays were carried out for 6 hr at 37 °C in humidified air with 5% CO2 as described. To quantify tube formation, five random areas/well at 100× magnification were imaged and the number of tubes formed by cord-like structures exceeding 100 μm in length, measured using Axiovision 4.4 software (Carl Zeiss), were counted. The experiments were performed three times in duplicate.

[ ]: non-standard residue; d: D form. Aib = CC(C)(N)C(=O)O

Take “Ac-[dY][dR][Aib][dR]-NH2 (SMILES CC(=O)N[C@H](Cc1ccc(O)cc1)C(=O)N[C@H](CCCNC(=N)N)C(=O)NC(C)(C)C(=O)N[C@H](CCCNC(=N)N)C(N)=O) [RI-3]”: in the series on HT1080 cells, the “reduction of the extent of cell invasion (matrigel)” value is recorded as 51%. In the series on Akt(S473), the “reduction in fMLF-dependent phosphorylation of Akt(S473)” value is listed as 22%. The “reduction in fMLF-dependent phosphorylation of CREB(S133)” value with CREB(S133) is 42%. In series [1], the “reduction in fMLF-dependent phosphorylation of ERK1/2(T202/Y204/T185/Y187)” value was 25%. For the same substance, the “reduction in fMLF-dependent phosphorylation of FAK(Y397)” value in the series on FAK(Y397) is reported as 30%. Also, the “reduction in fMLF-dependent phosphorylation of Fgr(Y412)” value in the series with Fgr(Y412) amounted to 43%. For the same substance, in the series on p38α(T180/Y182), the “reduction in fMLF-dependent phosphorylation of p38α(T180/Y182)” value came to 21%. The “cell index curves of migrating cells, peptide vs peptide pre-incubated in bovine serum” value in [2] is reported as “overlapping curves”. For the same substance, the “reduction of VEGF-dependent endothelial capillary-like structures” value in the series with HUVECs (EBM plus 40 ng/mL VEGF165, 6 hr on matrigel) was 75%. In addition, the “reduction of FBS-dependent endothelial capillary-like structures” value in the series on HUVECs (EBM plus 10% FBS, 6 hr on matrigel) is 61%.
